Results from patent US4125531A, “2-Substituted-1-azabicyclo[2.2.2]octanes” (G. D. Searle & Co., priority 1977, dated 1978).
Structures can show the parent of a compound that is named as a salt. Where two headings read alike, the source gives them in different places.

Assays:
[1] = tested on: gastronintestinal motility; test: Mouse Cecal Test (inhibition of gastrointestinal motility, charcoal in cecum); format: in vivo, mouse (male Charles River mice); details: po, read-out: ED50 ± S.E. (median effective dose), Mouse Cecal Test
Source text: The compounds of the present invention are useful in consequence of their valuable pharmacological properties. They are, for example, potent anti-diarrheal agents as evidenced by their ability to inhibit gastronintestinal motility as set out in the following tests:
The method used for this assay is a modification of the techniques previously described by Macht and BarbaGose, J. Amer. Pharm. Ass., 20, 558 (1931), and Janssen and Jageneau, J. Pharm. Pharmacol., 9, 381 (1957). Details are as follows:
A group of six, male Charles River mice weighing 20-25 g. which have been previously fasted for 24 hours are pretreated with the test compounds administered orally as a solution in water or suspended in 0.5% methyl cellulose. A constant volume of 10 ml./kg. is employed. Thirty minutes following administration of the test compounds, the animals are given a single oral dose of charcoal which consists of 0.2 ml. per mouse of 10% charcoal suspended in 1.0% methyl cellulose. Three and a half hours after charcoal administration, the animals are sacrificed and the cecum examined for the absence or presence of charcoal on an all-or-none basis.
The median effective dose (ED50) is then calculated for each compound using the logistic method of Berkson (1953).
The median effective dose ± standard Error ED50 ± SE) for the following representative compounds of the present invention in the Mouse Cecal Test are […]

[2] = tested on: castor oil-induced diarrhea; test: Castor Oil-Induced Diarrhea in the Rat; format: in vivo, rat (adult Charles River male rats); details: po, read-out: ED50 ± S.E. (median effective dose) at 2 hours past castor oil administration
Procedure: Castor Oil-Induced Diarrhea in the Rat
Adult Charles River male rats are fasted in community cages for 24 hours prior to the test, with free access to water. The test compound is then administered intragastrically (suspended on 0.5% methyl cellulose) one hour prior to the intragastric adminstration of a dose of 1.0 ml. castor oil per rat. The rats are then observed for the presence or absence of diarrhea at hourly intervals for up to 8 hours past the castor oil adminstration. Using the method of Berkson (1953), the median effective dose (ED50) values are calculated at each hourly interval for the test compound.
The median effective dose at 2 hours past the castor oil adminstration for the following representative compounds of the present invention in the castor oil-induced diarrhea in the Rat test are: […]

[3] = IG, test compound 30 minutes before charcoal, cecum examined 3.5 hours after charcoal
[4] = IG, test compound one hour before 1.0 ml castor oil, 2 hours past castor oil

SMILES | ED50 [1] [mg/kg] | ED50 ([2]; 2 h) [mg/kg] | ED50 [1, 3] [mg/kg] | ED50 [2, 4] [mg/kg]
CCCCCC(CC1CC2CCN1CC2)(c1ccccc1)c1ccccc1.O=C(O)/C=C\C(=O)O (centres unmarked) [2-(2,2-diphenylheptyl)-1-azabicyclo[2.2.2]octane maleate] | 5.84 ± 1.94 | 10.2 ± 1.43 |  | 
CCOC(=O)C1(c2ccccc2)CCN(CCC(C#N)(c2ccccc2)c2ccccc2)CC1 [Diphenoxylate . HCl, reference compound] | 3.12 ± 1.29 |  |  | 
CCCCC(CC1CC2CCN1CC2)(c1ccccc1)c1ccccc1 (centres unmarked) [2-(2,2-diphenylhexyl)-1-azabicyclo[2.2.2]octane] |  |  | 8.74 ± 3.95 | 4.57 ± 0.21
C=CCC(CC1CC2CCN1CC2)(c1ccccc1)c1ccccc1 (centres unmarked) [2-(2,2-diphenyl-4-pentenyl)-1-azabicyclo[2.2.2]octane] |  |  | 1.82 ± 0.45 | 1.13 ± 0.18
CCCCCCC(CC1CC2CCN1CC2)(c1ccccc1)c1ccccc1.O=C(O)/C=C\C(=O)O (centres unmarked) [2-(2,2-diphenyloctyl)-1-azabicyclo[2.2.2]octane maleate] | 20.7 ± 12.3 |  |  | 
CC(CC1CC2CCN1CC2)(c1ccccc1)c1ccccc1 (centres unmarked) [2-(2,2-diphenylpropyl)-1-azabicyclo[2.2.2]octane] |  |  | 43.1 ± 15.5 | 
CC(C)=CCC(CC1CC2CCN1CC2)(c1ccccc1)c1ccccc1 (centres unmarked) [2-(5-methyl-2,2-diphenylhex-4-enyl)-1-azabicyclo[2.2.2]octane] |  |  | 1.45 ± 0.66 | 1.74 ± 0.53
